Data taken from PMC8147216, “Genotoxicity Evaluation of Propyl-Propane-Thiosulfinate (PTS) from Allium genus Essential Oils by a Combination of Micronucleus and Comet Assays in Rats” (Foods, 2021).
Values joined by “and” are separate entries in the source; they are usually repeats but may differ in a detail not shown here. Equal entries are not always repeated. Where two headings read alike, the source gives them in different places.

What was measured:
[1] = tested on: bone marrow erythrocytes; test: In vivo micronucleus (MN) assay in bone marrow (OECD 474); design: species or system Wistar rats
Method: (§1) After acclimation time, 28 male and 28 female rats were randomly divided into control or treatment groups: the negative control (C−) (five male and five female rats), the solvent control (C sol) (five male and five female rats) treated with water with 0.3% Tween 80, and the positive control (C+) (three male and three female rats) treated with 200 mg/kg b.w. of ethylmethanesulfonate (EMS). The three PTS-treated groups (five male and five female rats per group) were exposed to 55.0, 17.4, and 5.5 mg of PTS/kg b.w. The number of animals was selected according to OECD 474 [27] and OECD 489 [28], which state five animals per sex and per group, and which also allow the use of at least three animals of both sexes treated with a positive control.
Doses were dissolved in water with Tween 80 (final concentration 0.3%) in a final volume of 1.5 mL. Tween 80 was previously used in genotoxicity in vivo studies by Mellado-Garcia et al. with the aim of better conveying alliaceous compounds with an oily nature. All groups were dosed at 0, 24, and 45 h via gavage using a stomach tube (Vygon, Ecouen, France) and were sacrificed 3 h after the final dose administration for the combined comet assay and MN endpoints. The time points of PTS administrations, as well as the timing of sacrifice, were selected following the criteria of OECD guideline 489 and Bowen et al..
(§2) Samples of the liver and stomach were extracted, and a small part of each tissue was immediately handled, as described in Section 2.6, for the standard and enzyme-modified comet assay. Moreover, blood samples were extracted and preserved in Vacutainer® sodium Heparin Tubes (Becton, Dickinson, Rutherford, NJ, USA). Furthermore, samples from the bone marrow of both femurs of each animal were gathered for the MN assay and were rapidly used to prepare smears (Figure 1). For the histopathologic study, sections of the liver and stomach were excised, rinsed with cold saline solution, and preserved in 10% buffered formalin for light microscopy, according to Llana-Ruiz-Cabello et al..
The MN test was performed according to the OECD guideline 474 [27] and Diez-Quijada et al.. The bone marrow of the femurs of the rats were mixed with a drop of fetal bovine serum. Therefore, slides were immersed in methanol, dried, and stained with Giemsa (Figure 1).
The polychromatic erythrocytes (PCE) among total erythrocytes (polychromatic and normochromic erythrocytes (NCE)) ratio and PCE for every NCE ratio were calculated by counting 500 erythrocytes per rat. The number of micronuclei found in immature erythrocytes was calculated by counting a total of 5000 […] per rat, and it was expressed as %MN.

[2] = tested on: Caco-2 cells; design: method as in PMID 27939830; conditions: 24 and 48 h, highest concentration assayed; cited from earlier work
[3] = tested on: male and female rats; test: Combined in vivo MN-comet assay (overall genotoxicity); conditions: male and female rats orally exposed, 55.0, 17.4 or 5.5 mg PTS/kg b.w.
Method: After acclimation time, 28 male and 28 female rats were randomly divided into control or treatment groups: the negative control (C−) (five male and five female rats), the solvent control (C sol) (five male and five female rats) treated with water with 0.3% Tween 80, and the positive control (C+) (three male and three female rats) treated with 200 mg/kg b.w. of ethylmethanesulfonate (EMS). The three PTS-treated groups (five male and five female rats per group) were exposed to 55.0, 17.4, and 5.5 mg of PTS/kg b.w. The number of animals was selected according to OECD 474 [27] and OECD 489 [28], which state five animals per sex and per group, and which also allow the use of at least three animals of both sexes treated with a positive control. Doses were dissolved in water with Tween 80 (final concentration 0.3%) in a final volume of 1.5 mL. Tween 80 was previously used in genotoxicity in vivo studies by Mellado-Garcia et al. with the aim of better conveying alliaceous compounds with an oily nature. All groups were dosed at 0, 24, and 45 h via gavage using a stomach tube (Vygon, Ecouen, France) and were sacrificed 3 h after the final dose administration for the combined comet assay and MN endpoints. The time points of PTS administrations, as well as the timing of sacrifice, were selected following the criteria of OECD guideline 489 and Bowen et al..

[4] = tested on: L5178YTk+/− cells; design: method as in PMID 27939830; conditions: 0.9–15.65 µM, 24 and 48 h of treatment; cited from earlier work
[5] = tested on: rats; test: Acute toxicity study to establish the maximum tolerated dose; type: in vivo
Method: The selection of PTS doses was calculated while taking into account a preceding acute toxicity study carried out by our research group, in which rats (8–10 weeks old) were administrated decreasing doses of PTS to establish the maximum tolerated dose (MTD). […] At that dose, no remarkable injury was detected in the treated rats, and no evidence of study-limiting toxicity was observed. Then, considering the ICH S2 Guidelines and the OECD protocols 474 [27] and 489 [28], the limit dose or MTD of 55.0 mg/kg b.w. was chosen as the highest dose, and two additional properly spaced dose levels (divided by √10) were also calculated. Consequently, the doses were set at 55.0, 17.4, or 5.5 mg of PTS/kg b.w.

[6] = tested on: liver, stomach and blood cells; test: In vivo enzyme-modified comet assay (Endo III, FPG); design: species or system Wistar rats; conditions: any tissue assayed (liver, stomach, blood); 5.5, 17.4, 55.0 mg/kg
Method: as §1
(§3) Doses were dissolved in water with Tween 80 (final concentration 0.3%) in a final volume of 1.5 mL. Tween 80 was previously used in genotoxicity in vivo studies by Mellado-Garcia et al. with the aim of better conveying alliaceous compounds with an oily nature. […]
(§4) At least 150 randomly selected nuclei per rat were analyzed with the image-analysis-software Comet Assay IV (Perceptive Instruments, UK). The %DNA in the tail, automatically acquired by the software, were used to define each of the comets analyzed. […] The medians of the scored comets were taken to describe each animal, and the means of each group of doses and controls are represented in Figure 2.

[7] = tested on: rats; test: Observation of clinical signs after treatment; type: in vivo, Wistar rats; conditions: all levels of doses of PTS (5.5, 17.4, 55.0 mg/kg b.w.), oral gavage
Excerpt: After treatment, each rat was observed twice daily for clinical signs such as changes in the eye, fur, or skin, changes in gait and posture, and secretions.

[8] = tested on: liver and stomach; test: Histopathological analysis of liver and stomach; type: in vivo, rats
Excerpt: as §2
Liver and stomach samples were processed and observed under the microscope according to Diez-Quijada et al.. A semiquantitative evaluation of the severity of lesions was scored as follows: 0, no significant lesions (0%); 1, minimal (<10%); 2, mild (11–25%); 3, moderate (26–50%); 4, severe (51–75%); and 5: very severe (>75%). Samples were individually examined by two unbiased and experienced observers, a veterinary pathologist, and an investigator (V.M-H. and R.M.).

[9] = tested on: liver, stomach and blood cells; test: In vivo standard comet assay (OECD 489); design: species or system Wistar rats; conditions: any doses assayed, either sex
Method: as §1, §3, §4

[10] = tested on: L5178YTk+/− cells; design: method as in PMID 27939830; conditions: cited from earlier work
[11] = tested on: Caco-2 cells; design: method as in PMID 27939830; conditions: 24–48 h; cited from earlier work
[12] = design: method as in PMID 27939830; conditions: 8.75–280 µM, presence or absence of S9; cited from earlier work
[13] = design: method as in PMID 26607106; conditions: four in vitro genotoxicity assays; cited from earlier work
[14] = tested on: male and female rats; design: method as in PMID 27085469; conditions: cited from earlier work
[15] = tested on: liver and stomach; design: method as in PMID 27085469; conditions: in vivo genotoxicity study; except glycogen accumulation in liver and slight degeneration in stomach at 55.0 mg/kg; cited from earlier work
[16] = female, Wistar, rat, in vivo, 200 mg/kg, 48 h
[17] = male, Wistar, rat, in vivo, 200 mg/kg, 48 h
[18] = females, 5.5 mg/kg, gavage at 0, 24, 45 h, mean ± SD
[19] = females, 17.4 mg/kg, gavage at 0, 24, 45 h, mean ± SD
[20] = females, 55.0 mg/kg, gavage at 0, 24, 45 h, mean ± SD
[21] = males, 5.5 mg/kg, gavage at 0, 24, 45 h, mean ± SD
[22] = males, 17.4 mg/kg, gavage at 0, 24, 45 h, mean ± SD
[23] = males, 55.0 mg/kg, gavage at 0, 24, 45 h, mean ± SD

In the case of `CCOS(C)(=O)=O` [EMS, ethylmethanesulfonate, reference compound], the “%MN” value [1, 16] is reported as 2.53 ± 0.38 %, the PCE/NCE [1, 16] is reported as 0.53 ± 0.29 and the PCE/Total [1, 16] is reported as 0.33 ± 0.12. The “%MN” value [1, 17] was 1.46 ± 0.72 %, the PCE/NCE [1, 17] was 0.54 ± 0.12 and the PCE/Total [1, 17] was 0.35 ± 0.05.

For `CCCS[S+]([O-])CCC` (stereo not drawn) [PTS, Propyl-propanethiosulfinate], the “concentration with positive results in standard comet assay” value [2] is given as 280 µM and 280.0 µM, the in vivo genotoxicity [3] is given as “not genotoxic” and the “mutagenicity in MLA assay” value [4] is given as “not mutagenic”. The mortality ([5]; initial dose 175.0 mg of PTS/kg b.w.) was “death of one of the three animals”, the “maximum tolerated dose (MTD)” value ([5]; rat, in vivo) was 55.0 mg of PTS/kg and the “frequency of Endo III or FPG-sensitive sites” value [6] was “no remarkable changes”. The “% of MN in immature erythrocytes vs controls” value ([1]; any groups (5.5, 17.4, 55 mg/kg) of either sex) was “not significantly changed”, the “%MN” value [1, 18] was 0.86 ± 0.09% and the PCE/NCE [1, 18] was 1.03 ± 0.43. For the same compound, the PCE/Total [1, 18] was 0.49 ± 0.10, the “%MN” value [1, 19] was 0.74 ± 0.06% and the PCE/NCE [1, 19] was 0.68 ± 0.36. The PCE/Total [1, 19] was 0.38 ± 0.13, the “%MN” value [1, 20] was 1.03 ± 0.21% and the PCE/NCE [1, 20] was 0.54 ± 0.28. The PCE/Total [1, 20] was 0.33 ± 0.11, the “%MN” value [1, 21] was 0.46 ± 0.21% and the PCE/NCE [1, 21] was 1.31 ± 0.30. The PCE/Total [1, 21] was 0.56 ± 0.05, the “%MN” value [1, 22] was 0.72 ± 0.30% and the PCE/NCE [1, 22] was 1.14 ± 0.34. The PCE/Total [1, 22] was 0.52 ± 0.08, the “%MN” value [1, 23] was 0.46 ± 0.15% and the PCE/NCE [1, 23] was 0.89 ± 0.21. The PCE/Total [1, 23] was 0.46 ± 0.06, the clinical signs [7] was “No clinical signs were observed” and the “severity of lesions in glandular stomach” value ([8]; 55.0 mg/kg, hypertrophy of mucus cells and flaking epithelium, p < 0.05 vs controls) was “minimal to mild”. For the same compound, the “severity of lesions in liver” value ([8]; 55.0 mg/kg, inflammatory infiltrates and centrilobular degeneration of hepatocytes, p < 0.05 vs controls) was “minimal (1, minimal (<10%))”, the “severity of changes in liver” value ([8]; 17.4 and 5.5 mg/kg, similar to negative and solvent controls) was “minimal (1, minimal (<10%))” and the “severity of histopathological changes in stomach” value ([8]; 17.4 and 5.5 mg/kg, statistically significant) was “minimal (1, minimal (<10%))”. For the same compound, the “lesions in the nonglandular stomach” value ([8]; positive control (EMS 200 mg/kg) and PTS 55.0 mg/kg groups, with pyogranulomatous inflammatory infiltrate) was “vacuolation of the squamous epithelium in the mucosa”, the “DNA strand breaks (%DNA in tail), standard comet assay” value [9] was “No observed DNA stand breaks” and the “concentration with positive results in MN test in vitro” value ([10]; metabolites (+S9)) was no less than 20 µM. For the same compound, the “concentration with positive results in MN test in vitro” value ([10]; without S9, highest concentration assayed) was 17.25 µM, the “DNA damage after incubation with enzymes (Endo III or FPG)” value [11] was “no increase in DNA damage” and the “mutagenicity in the Ames test” value [12] was “not mutagenic”.

For `CCCSS(=O)(=O)CCC` [PTSO, propyl thiosulfinate oxide], the “in vitro genotoxicity responses” value [13] is given as “contradictory responses”, the in vivo genotoxicity [14] is given as “lack of PTSO genotoxicity” and the “histopathological damage in liver and stomach” value [15] is given as “no relevant damage”.
